Patent US8771665B2 (Cocrystal Discovery, Inc., priority 2010, dated 2014)

target: T1, HCV1b NS5B polymerase delta 21 (Hepatitis C virus genotype 1b, UniProt P26663); test: RNA-Dependent RNA HCV NS5B (Polymerase) Assay and IC50 Determination; type: biochemical
T1 construct: purified HCV1b NS5B polymerase delta 21
Method: RNA-Dependent RNA HCV NS5B (Polymerase) Assay and IC50 Determination
In vitro RNA-dependent RNA polymerase activity was determined in a reaction mixture (50 μL) containing 50 mM Tris-HCl, pH 7.5, 5 mM MgCl2, 1 mM dithiothreitol, 0.5% Triton® X-100, 10 μM of UTP, 0.1-0.5 μCi of α-^32P UTP (Perkin Elmer Life Sciences), 1 μg of polyA:U16 (Midland Oligo), and 0.6 μg of purified HCV1b NS5B polymerase delta 21. Different concentrations of compounds were added to the reaction mixtures. The reaction was carried out at RT (23° C.) for 60 min and then stopped by the addition of 100 μL of 50 mM EDTA. The reaction mixtures were filtered through either a DE81 membrane or a positively charged nylon membrane, and the membranes were then extensively washed with 30 mM sodium citrate, pH 7.0 and 300 mM NaCl. The radiolabeled RNA products were quantitated using a Storm™ Phosphorlmager™ (GE Life Sciences). IC50 values were calculated using GraFit 6 and GraphPad Prism 5 from triplicate assays.

T1 sequence (P26663 2420-2989): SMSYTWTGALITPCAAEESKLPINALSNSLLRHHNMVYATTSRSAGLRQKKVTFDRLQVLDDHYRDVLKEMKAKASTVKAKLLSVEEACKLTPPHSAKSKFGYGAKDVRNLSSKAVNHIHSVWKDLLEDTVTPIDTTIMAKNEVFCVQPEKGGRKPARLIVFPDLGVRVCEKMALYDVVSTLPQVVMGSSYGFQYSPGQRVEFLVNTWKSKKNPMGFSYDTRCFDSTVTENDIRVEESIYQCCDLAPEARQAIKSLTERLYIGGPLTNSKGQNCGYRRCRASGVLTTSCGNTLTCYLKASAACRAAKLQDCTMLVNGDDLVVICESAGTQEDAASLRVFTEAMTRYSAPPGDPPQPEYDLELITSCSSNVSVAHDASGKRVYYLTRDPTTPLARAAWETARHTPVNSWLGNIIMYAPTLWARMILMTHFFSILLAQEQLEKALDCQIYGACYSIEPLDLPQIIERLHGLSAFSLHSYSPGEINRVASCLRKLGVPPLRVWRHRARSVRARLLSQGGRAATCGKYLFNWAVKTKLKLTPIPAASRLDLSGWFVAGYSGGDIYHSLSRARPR

Row | SMILES | IC50 [µM]
1 | Cc1cc(C)n2nc(-c3ccc(-c4cc(C5=C(C6CCC(C)CC6)CN(C)CC5)c(C(=O)O)s4)cc3)cc2n1 (stereo not shown) [Example 161, 5-[4-(5,7-Dimethyl-pyrazolo[1,5-a]pyrimidin-2-yl)-phenyl]-3-[1-methyl-5-(4-methyl-cyclohexyl)-1,2,3,6-tetrahydro-pyridin-4-yl]-thiophene-2-carboxylic acid] | 3 to 10
2 | CCN1CCC(c2cc(C#CCC(C)C)sc2C(=O)O)=C(C2CCC(C)CC2)C1 (stereo not shown) [Example 029, 3-[1-Ethyl-5-(4-methyl-cyclohexyl)-1,2,3,6-tetrahydro-pyridin-4-yl]-5-(4-methyl-pent-1-ynyl)-thiophene-2-carboxylic acid] | < 3
3 | CC1CCC(C2=C(c3cc(C#CC(C)(C)C)sc3C(=O)O)CN(CC3CCOC3)CC2)CC1 (stereo not shown) [Example 117, 5-(3,3-Dimethyl-but-1-ynyl)-3-[4-(4-methyl-cyclohexyl)-1-(tetrahydro-furan-3-ylmethyl)-1,2,5,6-tetrahydro-pyridin-3-yl]-thiophene-2-carboxylic acid] | < 3
4 | CCN1CCC(c2cc(-c3ccc(NCc4cscn4)cc3)sc2C(=O)O)=C(C2CCC(C)CC2)C1 (stereo not shown) [Example 061, 3-[1-Ethyl-5-(4-methyl-cyclohexyl)-1,2,3,6-tetrahydro-pyridin-4-yl]-5-{4-[(thiazol-4-ylmethyl)-amino]-phenyl}-thiophene-2-carboxylic acid] | > 10
5 | CC1CCC(C2=C(c3cc(-c4ccc(-c5cn6ncccc6n5)cc4)sc3C(=O)O)CCN(C)C2)CC1 (stereo not shown) [Example 164, 5-(4-Imidazo[1,2-b]pyridazin-2-yl-phenyl)-3-[1-methyl-5-(4-methyl-cyclohexyl)-1,2,3,6-tetrahydro-pyridin-4-yl]-thiophene-2-carboxylic acid] | 3 to 10
6 | CC1CCC(C2=C(c3cc(-c4ccccc4)sc3C(=O)O)CCN(C(=O)c3ccncc3)C2)CC1 (stereo not shown) [Example 094, 3-[5-(4-Methyl-cyclohexyl)-1-(pyridine-4-carbonyl)-1,2,3,6-tetrahydro-pyridin-4-yl]-5-phenyl-thiophene-2-carboxylic acid] | 3 to 10
7 | CN1CCC(c2cc(-c3ccc(NC(=O)c4cscn4)cc3)sc2C(=O)O)=C([C@H]2CC[C@H](C)CC2)C1 [Example 047, 3-[1-Methyl-5-(4-methyl-cyclohexyl)-1,2,3,6-tetrahydro-pyridin-4-yl]-5-{4-[(thiazole-4-carbonyl)-amino]-phenyl}-thiophene-2-carboxylic acid] | < 3
8 | Cc1ccnc2cc(-c3ccc(-c4cc(C5=C(C6CCC(C)CC6)CN(C)CC5)c(C(=O)O)s4)cc3)nn12 (stereo not shown) [Example 162, 3-[1-Methyl-5-(4-methyl-cyclohexyl)-1,2,3,6-tetrahydro-pyridin-4-yl]-5-[4-(7-methyl-pyrazolo[1,5-a]pyrimidin-2-yl)-phenyl]-thiophene-2-carboxylic acid] | < 3
9 | CCNC(=O)N1CCC(c2cc(-c3ccccc3)sc2C(=O)O)=C(C2CCC(C)CC2)C1 (stereo not shown) [Example 085, 3-[1-Ethylcarbamoyl-5-(4-methyl-cyclohexyl)-1,2,3,6-tetrahydro-pyridin-4-yl]-5-phenyl-thiophene-2-carboxylic acid] | 3 to 10
10 | CC1CCC(C2=C(c3cc(-c4ccccc4)sc3C(=O)O)CCN(CC3CC3)C2)CC1 (stereo not shown) [Example 006, 3-[1-Cyclopropylmethyl-5-(4-methyl-cyclohexyl)-1,2,3,6-tetrahydro-pyridin-4-yl]-5-phenyl-thiophene-2-carboxylic acid] | < 3
11 | CC1CCC(C2=C(c3cc(C#CC(C)(C)C)sc3C(=O)O)CCN(Cc3ccccn3)C2)CC1 (stereo not shown) [Example 127, 5-(3,3-Dimethyl-but-1-ynyl)-3-[5-(4-methyl-cyclohexyl)-1-pyridin-2-ylmethyl-1,2,3,6-tetrahydro-pyridin-4-yl]-thiophene-2-carboxylic acid] | < 3
12 | CC1CCC(C2=C(c3cc(C#CC4CC4)sc3C(=O)O)CCN(Cc3ccccn3)C2)CC1 (stereo not shown) [Example 134, 5-Cyclopropylethynyl-3-[5-(4-methyl-cyclohexyl)-1-pyridin-2-ylmethyl-1,2,3,6-tetrahydro-pyridin-4-yl]-thiophene-2-carboxylic acid] | < 3
13 | CCCC(=O)N1CCC(c2cc(-c3ccccc3)sc2C(=O)O)=C(C2CCC(C)CC2)C1 (stereo not shown) [Example 077, 3-[1-Butyryl-5-(4-methyl-cyclohexyl)-1,2,3,6-tetrahydro-pyridin-4-yl]-5-phenyl-thiophene-2-carboxylic acid] | 3 to 10
14 | CCOC(=O)N1CCC(c2cc(-c3ccccc3)sc2C(=O)O)=C(C2CCC(C)CC2)C1 (stereo not shown) [Example 038, 4-(2-Carboxy-5-phenyl-thiophen-3-yl)-5-(4-methyl-cyclohexyl)-3,6-dihydro-2H-pyridine-1-carboxylic acid ethyl ester] | > 10
15 | CC1CCC(C2=C(c3cc(-c4ccccc4)sc3C(=O)O)CCN(C(=O)Cc3ccc4ccccc4c3)C2)CC1 (stereo not shown) [Example 096, 3-[5-(4-Methyl-cyclohexyl)-1-(2-naphthalen-2-yl-acetyl)-1,2,3,6-tetrahydro-pyridin-4-yl]-5-phenyl-thiophene-2-carboxylic acid] | > 10
16 | CC1CCC(C2=C(c3cc(C#CC(C)(C)O)sc3C(=O)O)CCN(C)C2)CC1 (stereo not shown) [Example 011, 5-(3-Hydroxy-3-methyl-but-1-ynyl)-3-[1-methyl-5-(4-methyl-cyclohexyl)-1,2,3,6-tetrahydro-pyridin-4-yl]-thiophene-2-carboxylic acid] | < 3
17 | CC1CCC(C2=C(c3cc(-c4ccccc4)sc3C(=O)O)CCN(C(=O)OC(C)(C)C)C2)CC1 (stereo not shown) [Example 037, 4-(2-Carboxy-5-phenyl-thiophen-3-yl)-5-(4-methyl-cyclohexyl)-3,6-dihydro-2H-pyridine-1-carboxylic acid tert-butyl ester] | > 10
18 | CCN1CCC(c2cc(C#CC(C)(C)C)sc2C(=O)O)=C(C2CCC(C)CC2)C1 (stereo not shown) [Example 014, 5-(3,3-Dimethyl-but-1-ynyl)-3-[1-ethyl-5-(4-methyl-cyclohexyl)-1,2,3,6-tetrahydro-pyridin-4-yl]-thiophene-2-carboxylic acid] | < 3
19 | CCN1CCC(c2cc(C#CC(C)(C)N(C)C)sc2C(=O)O)=C(C2CCC(C)CC2)C1 (stereo not shown) [Example 023, 5-(3-Dimethylamino-3-methyl-but-1-ynyl)-3-[1-ethyl-5-(4-methyl-cyclohexyl)-1,2,3,6-tetrahydro-pyridin-4-yl]-thiophene-2-carboxylic acid] | < 3
20 | CC1CCC(C2=C(c3cc(-c4ccc(-c5cc6ncccn6n5)cc4)sc3C(=O)O)CCN(Cc3ccccn3)C2)CC1 (stereo not shown) [Example 141, 3-[5-(4-Methyl-cyclohexyl)-1-pyridin-2-ylmethyl-1,2,3,6-tetrahydro-pyridin-4-yl]-5-(4-pyrazolo[1,5-a]pyrimidin-2-yl-phenyl)-thiophene-2-carboxylic acid] | 3 to 10
21 | CC1CCC(C2=C(c3cc(-c4ccccc4)sc3C(=O)O)CCN(Cc3nc4nc(C(C)C)cc(C(C)C)n4n3)C2)CC1 (stereo not shown) [Example 151, 3-[1-(5,7-Diisopropyl-[1,2,4]triazolo[1,5-a]pyrimidin-2-ylmethyl)-5-(4-methyl-cyclohexyl)-1,2,3,6-tetrahydro-pyridin-4-yl]-5-phenyl-thiophene-2-carboxylic acid] | 3 to 10
22 | COC(=O)N1CCC(c2cc(-c3ccccc3)sc2C(=O)O)=C(C2CCC(C)CC2)C1 (stereo not shown) [Example 074, 4-(2-Carboxy-5-phenyl-thiophen-3-yl)-5-(4-methyl-cyclohexyl)-3,6-dihydro-2H-pyridine-1-carboxylic acid methyl ester] | 3 to 10
